# From publication PMC7139875, “4-Pyridinio-1,4-Dihydropyridines as Calcium Ion Transport Modulators: Antagonist, Agonist, and Dual Action” (Oxidative Medicine and Cellular Longevity, 2020)
# “Also recorded” adds a separate entry of the source. Read-outs that look alike come from different tables or passages of the source.
# Tests used:
# [1] = tested on: Ca2+ ion channel activity evoked by compound 4 in SH-SY5Y cells; assay: Inhibitor analysis of Ca2+ ion channel activity evoked by compound 4; format: cell-based, human; conditions: for inhibition at 100 µM / IC50: Homo sapiens; for inhibition at 100 µM: SH-SY5Y, 15 min preincubation; for IC50: 100 μM compound 4, SH-SY5Y cells, read-out: IC50 for inhibition of Ca2+ ion channel activity evoked by compound 4; for Effect on Ca2+ ion channel activity in the presence of compound 4: inhibitor at concentrations from 4 to 100 μM
# Protocol: The intracellular free Ca^2+ concentration [Ca^2+]i was measured in confluent monolayers of SH-SY5Y or […] cells with the Ca^2+-sensitive fluorescent indicator Fluo-4 NW according to the instruction (Fluo-4 NW Calcium Assay Kit, Thermo Fisher Scientific, cat. No. F36206) (as referenced by […] al.. Changes in [Ca^2+]i were measured from the fluorescence emitted at 516 nm due to alternate excitation at 494 nm using the microplate reader Tecan Infinite M1000 (Austria). Intracellular Ca^2+ concentration was calculated from a standard curve with known amounts of free Ca^2+ using the standard Ca^2+-EGTA buffering system (Calcium Calibration Buffer Kit, cat. No.C-3008, Thermo Fisher Scientific). […] The commercial calcium agonist compound Bay […] was used as the reference compound.
# [2] = tested on: Ca2+ response induced by compound 4 in SH-SY5Y cells (RyRs); assay: Role of RyRs in Ca2+ response induced by compound 4 (Ca2+-free medium); format: cell-based, human
# Protocol: (§1) In some experiments, […] NW loaded cells were washed and placed in normal Ca^2+-free HEPES-buffered replacement medium. In Ca^2+ restoration experiments, Ca^2+ was initially absent from the medium and was restored to 1 mM after 870 s of stimulation with compound 4.
# Where indicated, the cells were preincubated with inhibitors of Ca^2+ signaling proteins (amlodipine, nifedipine, nicardipine, mecamylamine, atropine, or 2-aminoethoxydiphenyl borate (2-APB) in dose 100 μM; procaine in dose 10 mM for 15 min, or with 5 μM thapsigargin for 10 min, or with 100 μM ruthenium red for 5 min), followed by stimulation with 100 μM of compound 4. The commercial calcium agonist compound Bay K8644 was used as the reference compound.
# [3] = tested on: carbachol-dependent mobilization of intracellular Ca2+ in SH-SY5Y cells; assay: Antagonist effect on carbachol-evoked intracellular Ca2+ mobilization (Fluo-4 NW); format: cell-based, human
# Protocol: (§2) The intracellular free Ca^2+ concentration [Ca^2+]i was measured in confluent monolayers of SH-SY5Y or A7R5 cells with the Ca^2+-sensitive fluorescent indicator Fluo-4 NW according to the instruction (Fluo-4 NW Calcium Assay Kit, Thermo Fisher Scientific, cat. No. F36206) (as referenced by Vilskersts et al..
# The investigation of Ca^2+ channel blocking activity of DHP derivatives was based on the effect of DHP on carbachol evoked intracellular Ca^2+ mobilization in human neuroblastoma cells.
# The cells were preincubated in the dark for 15 minutes with the tested compounds at concentrations ranging from 0.16 to 100 μM. The application of carbachol (100 nM) to […] NW loaded SH-SY5Y cells stimulated a classic “biphasic” response. The well-known 3rd generation calcium channel inhibitor amlodipine, which is also claimed to act as antioxidant and free radical scavenger, was used as the positive control (at the concentration range from 20 to 100 μM).
# (§3) Changes in [Ca^2+]i were measured from the fluorescence emitted at 516 nm due to alternate excitation at 494 nm using the microplate reader Tecan Infinite M1000 (Austria). Intracellular Ca^2+ concentration was calculated from a standard curve with known amounts of free Ca^2+ using the standard Ca^2+-EGTA buffering system (Calcium Calibration Buffer Kit, cat. No.C-3008, Thermo Fisher Scientific).
# The IC50 values for the tested compounds were calculated using GraphPad Prism 4.0 software.
# [4] = tested on: [Ca2+]i in SH-SY5Y cells; assay: Ca2+ channel agonist activity, [Ca2+]i in Fluo-4 NW-loaded cells; format: cell-based, human; conditions: for Agonist activity (RFU, 100 μM): compound at 100 μM
# Protocol: as §2
# (§4) For the investigation of Ca^2+ channel agonist activity of the DHP compound, 4 […] NW loaded SH-SY5Y or A7R5 cells were stimulated by the addition of compound 4 at the concentration range from 4 to 100 μM. The well-known calcium channel agonist Bay K8644 was used as the positive control (at the concentration range from 4 to 100 μM).
# as §3, §1
# [5] = Electrochemical oxidation potentials by cyclic voltammetry; format: physicochemical; conditions: glassy carbon electrode, vs Ag/Ag+, acetonitrile, 0.1 M TBABF4
# Protocol: The cyclic voltammetry experiments were carried out on the PARSTAT 2273 electrochemical system. A stationary glassy carbon disk electrode (d = 0.8 mm) served as the working electrode, while the counter electrode was a Pt wire. The oxidation potentials were measured relative to Ag/Ag^+ reference electrode. Acetonitrile was dried over P2O5 and distilled; the distillate was stored over CaH2 and redistilled just before use. Recrystallized tetrabutylammonium tetrafluoroborate (TBABF4) was used as a supporting electrolyte at 0.1 M concentration.
# [6] = tested on: isolated rat aortic ring; assay: Isolated rat aortic ring model, KCl precontracted denuded rings
# Protocol: The experimental animal (one rat) was anesthetized with pentobarbital sodium (60 mg/kg i.p.). Once deep anesthesia was achieved, the thoracic aorta was dissected, placed in ice cold Krebs-Henseleit (K-H) buffer (content in mM: NaCl 118, KCl 4.7, CaCl2 2.5, MgCl2 1.64, NaHCO3 24.88, KH2PO4 1.18, glucose 10.0, sodium pyruvate 5.0, and disodium salt of ethylenediaminetetraacetic acid 0.05), cleaned from connective and fatty tissues, and cut into 3-4 mm long rings. Endothelium was mechanically scraped off with the tips of forceps, and the aortic rings were mounted between two stainless steel hooks attached to an isometric force transducer in 20 ml organ bath in K-H buffer bubbled with 95% O2 and 5% CO2 at 37°C (one separate aortic ring was used for each tested compound). Passive tension was adjusted to approximately 40 mN over a 60 min equilibration period. The experiment was started after the equilibration period by adding KCl solution to obtain a concentration of 50 mM. Addition of KCl induced contraction of the aortic rings, and a plateau of contraction was reached about […]. Thereafter, the tested compound solutions in dimethyl sulfoxide were added to the aortic rings in order to obtain the final concentrations in the range of 10^−10-10^−5 M. Changes in the tension were recorded using LabChart Pro software from ADInstruments (https://www.adinstruments.com/products/labchart/labchart-for-research). The EC50 values of the tested compounds were calculated using Prism 3.0 software from GraphPad (GraphPad Software Inc., USA) (https://www.graphpad.com/scientific-software/prism/). The experimental procedures involving experimental animals were carried out in accordance with the guidelines of the European Community, LR local laws and policies, and were approved by the Latvian Animal Protection Ethical Committee, the Food and Veterinary Service, Riga, Latvia.
# [7] = tested on: [Ca2+]i in A7R5 cells; assay: Ca2+ channel agonist activity in A7R5 aorta smooth muscle cells; format: cell-based, rat; conditions: 20 to 100 μM
# Protocol: as §2, §4, §3
# [8] = inhibitor 100 μM, 100 μM compound 4
# [9] = inhibitor 4 μM, 100 μM compound 4
# [10] = inhibitor 20 μM, 100 μM compound 4
# [11] = SH-SY5Y cells, 100 nM carbachol, 15 min preincubation
# [12] = Homo sapiens, SH-SY5Y cells, 100 nM carbachol, 15 min preincubation, read-out: Antagonist activity (IC50)
smiles,measurement,setting,value
COC(=O)C1=C(C)NC(C)=C(C(=O)OC)C1c1ccccc1[N+](=O)[O-] [Nifedipine],inhibition at 100 µM,[1]; [8],42 ± 5%
same,IC50,[1],> 100 µM
same,Inhibition (%) of Ca2+ ion channel activity evoked by compound 4,[1]; [9],7 ± 8%
same,Inhibition (%) of Ca2+ ion channel activity evoked by compound 4,[1]; [10],16 ± 10%
same,Phase of the compound 4 response that is inhibited,[1]; [8],inhibited both phases
CCN(CC)CCOC(=O)c1ccc(N)cc1 [Procaine],IC50,"[2]; Homo sapiens, SH-SY5Y, Ca2+-free medium, read-out: IC50 for inhibition of Ca2+ response induced by compound 4",61 ± 9 µM
same,inhibition at 6.25 µM,"[2]; Homo sapiens, SH-SY5Y, inhibitor 6.25 μM, Ca2+-free medium",0%
same,inhibition at 12.5 µM,"[2]; Homo sapiens, SH-SY5Y, inhibitor 12.5 μM, Ca2+-free medium",5 ± 9%
same,inhibition at 25 µM,"[2]; Homo sapiens, SH-SY5Y, inhibitor 25 μM, Ca2+-free medium",0%
same,inhibition at 50 µM,"[2]; Homo sapiens, SH-SY5Y, inhibitor 50 μM, Ca2+-free medium",18 ± 6%
same,inhibition at 100 µM,"[2]; Homo sapiens, SH-SY5Y, inhibitor 100 μM, Ca2+-free medium",98 ± 5%
same,Ca2+ response induced by compound 4 after preincubation with inhibitor,[2]; inhibitor 10 mM,completely blocked; also recorded: absent
CN1[C@@H]2CC[C@H]1C[C@@H](OC(=O)C(CO)c1ccccc1)C2 (stereo partly drawn) [Atropine],Effect on Ca2+ ion channel activity in the presence of compound 4,[1],no effect
CCOC(=O)COC(=O)C1=C(C)NC(C)=C(C(=O)OCC(=O)OCC)C1c1cc[n+](CC(=O)c2ccccc2)cc1 [Compound 5],Antagonist activity (IC50),[3]; [11],lacked any activity; also recorded: no activity; also recorded: No effect
same,"Agonist activity (RFU, 100 μM)",[4],No effect
same,Electrooxidation potential,[5],1.70 V
CNC1(C)C2CCC(C2)C1(C)C (stereo not drawn) [Mecamylamine],Effect on Ca2+ ion channel activity in the presence of compound 4,[1],no effect
"NCCOB(c1ccccc1)c1ccccc1 [Compound 2-APB, 2-aminoethoxydiphenyl borate]",Effect on Ca2+ channel response induced by compound 4,[1]; pretreatment for 15 min,no effect
CCOC(=O)CC[n+]1cccc(C2C(C(=O)OCC(=O)OCC)=C(C)NC(C)=C2C(=O)OCC(=O)OCC)c1 [Compound 2],Antagonist activity (IC50),[3]; [11],lacked any activity; also recorded: no activity; also recorded: No effect
same,"Agonist activity (RFU, 100 μM)",[4],No effect
same,Electrooxidation potential,[5],1.69 V
CCOC(=O)COC(=O)C1=C(C)NC(C)=C(C(=O)OCC(=O)OCC)C1c1ccc[n+](CC(=O)c2ccccc2)c1 [Compound 3],IC50,[3]; [12],3.6 ± 0.3 µM
same,"Agonist activity (RFU, 100 μM)",[4],No effect
same,Electrooxidation potential,[5],1.68 V
CCOC(=O)COC(=O)C1=C(C)NC(C)=C(C(=O)OCC(=O)OCC)C1c1ccc[n+](CC(=O)c2ccc(OC)cc2)c1 [Compound 6],IC50,[3]; [12],100 ± 9 µM
same,Antagonist activity relative to amlodipine (times lower),[3]; SH-SY5Y cells,approximately nine times lower
same,"Agonist activity (RFU, 100 μM)",[4],No effect
same,Electrooxidation potential,[5],1.78 V
CCOC(=O)COC(=O)C1=C(C)NC(C)=C(C(=O)OCC(=O)OCC)C1c1ccc[n+](CC(=O)c2ccc([N+](=O)[O-])cc2)c1 [Compound 1],IC50,[3]; [12],100 ± 12 µM
same,"Agonist activity (RFU, 100 μM)",[4],No effect
COC(=O)C1=C(C)NC(C)=C(C(=O)OCCN(C)Cc2ccccc2)C1c1cccc([N+](=O)[O-])c1 (stereo not drawn) [Nicardipine],inhibition at 100 µM,[1]; [8],33 ± 8%
same,IC50,[1],> 100 µM
same,Inhibition (%) of Ca2+ ion channel activity evoked by compound 4,[1]; [9],10 ± 6%
same,Inhibition (%) of Ca2+ ion channel activity evoked by compound 4,[1]; [10],11 ± 5%
C/C=C(/C)C(=O)O[C@H]1C(C)=C2[C@H]([C@@H]1OC(=O)CCCCCCC)[C@@](C)(OC(C)=O)C[C@H](OC(=O)CCC)[C@@]1(O)[C@H]2OC(=O)[C@@]1(C)O [thapsigargin],Influence on Ca2+ ion increase induced by compound 4,"[1]; 5 μM inhibitor, Ca2+-free medium",no influence
CCOC(=O)COC(=O)C1=C(C)NC(C)=C(C(=O)OCC(=O)OCC)C1c1ccc[n+](C(C)C(=O)c2ccc(OCc3ccccc3)cc2)c1 (stereo not drawn) [Compound 4],inhibition at 8 µM,"[3]; Homo sapiens, SH-SY5Y, compound at 0,8 μM, read-out: Inhibition (%) of Ca2+ channels activated with carbachol",4 ± 10%
same,inhibition at 16 µM,"[3]; Homo sapiens, SH-SY5Y, compound at 0,16 μM, read-out: Inhibition (%) of Ca2+ channels activated with carbachol",-16 ± 10%
same,inhibition at 4 µM,"[3]; Homo sapiens, SH-SY5Y, compound at 4 μM, read-out: Inhibition (%) of Ca2+ channels activated with carbachol",11 ± 12%
same,inhibition at 20 µM,"[3]; Homo sapiens, SH-SY5Y, compound at 20 μM, read-out: Inhibition (%) of Ca2+ channels activated with carbachol",71 ± 9%
same,IC50,[3]; [12],12 ± 2 µM
same,IC50,"[3]; Homo sapiens, Table 5, SH-SY5Y cells, read-out: IC50, antagonist effect on Ca2+ channels activated with carbachol",12 ± 2 µM
same,Decrease of intracellular [Ca2+]i signal in the absence of extracellular Ca2+,"[4]; 100 μM compound, compared to presence of extracellular Ca2+",50%
same,"Agonist activity (RFU, 100 μM)",[4],14425 ± 1072 RFU
same,EC50,"[6]; KCl precontracted denuded rat aortic rings, read-out: Calcium channel blocking activity EC50",0.691 ± 0.167 µM
same,Calcium channel blocking activity relative to amlodipine (times weaker),[6]; isolated rat aortic ring model,about 50 times
same,Agonist effect (contractions of aorta rings),[6]; isolated rat aortic rings,no agonist effect
same,Electrooxidation potential,[5],1.68 V
same,Ca2+ ion channel agonist activity,[7],dose-dependent agonist activity
COC(=O)C1=C(C)NC(C)=C([N+](=O)[O-])C1c1ccccc1C(F)(F)F (stereo not drawn) [Bay K8644],Antagonist activity (IC50),[3]; [11],No effect
same,"Agonist activity (RFU, 100 μM)",[4],1553 ± 115 RFU
"N.N.N.N.N.N.N.N.N.N.N.N.N.N.[Cl-].[Cl-].[Cl-].[Cl-].[Cl-].[Cl-].[O-2].[O-2].[Ru+3].[Ru+3].[Ru+4] [Ruthenium, Ruthenium red]",Ca2+ response induced by compound 4 after preincubation with inhibitor,[2]; inhibitor 100 μM,absent
